Laboratory results reported in patent US20180228780A1, “3-(1H-PYRROLO[2,3-C]PYRIDIN-2-YL)-1H-INDAZOLES AND THERAPEUTIC USES THEREOF” (Samumed, LLC, priority 2015, published 2018).

What was measured:
Type in all cases: cell-based
[1] = tested on: SW480 colon cancer cells; test: Cell viability assay (CellTiter-Blue) in SW480 colon cancer cells; details: Homo sapiens; for EC50: 96 h, SW480 cell viability, four days incubation; for inhibition at 10 µM: SW480, read-out: percent inhibition at 10 μM
Outline: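 Fluorescence from resazurin reduced to resorufin by metabolically active cells was the read-out, taken after ~3 h with CellTiter-Blue.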

[2] = tested on: primary human mesenchymal stem cells (hMSCs); test: Induction of chondrogenesis in hMSCs (nodule imaging, Rhodamine B / Nile Red); details: 6 days; for Emax: relative to TGF-β3 (10 ng/mL) positive control, read-out: Max. Activity as % TGF-β3 activity; for EC50: concentration required to induce 50% levels of chondrogenesis vs TGF-β3, read-out: Conc (nM) of 50% TGF-β3 activity
Outline: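 Primary hMSCs at passage 3-6 were treated with compound; nodule area per well was normalized to the mean of 3 DMSO wells, averaged over 2-3 replicates, and the concentration giving 50% chondrogenesis relative to TGF-β3 control, plus maximum activity and its dose, was derived.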

[3] = tested on: IL-6 (THP-1 cells); test: IL-6 inhibition in THP-1 monocytes (HTRF); details: Homo sapiens; for EC50: IL-6 inhibition, THP-1 cells, HTRF, 10-point dose-response starting from 10 μM; for inhibition at 10 µM: THP-1, read-out: percentage in parentheses printed under EC50 >10
Outline: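 THP-1 cells serum-reduced (1% FBS, 24 h), plated 5000/well, stimulated with 500 ng/mL […] after 2 h and incubated a further 22 h at 37 °C. Secreted IL-6 quantified by HTRF (665/620 nm ratio), normalized to DMSO; EC50 from four-parameter fit, duplicates.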

[4] = tested on: Primary human fibroblasts derived from IPF patients (LL29 cells); test: Inhibition of the fibrotic process: αSMA staining in TGF-β1-treated LL29 fibroblasts; details: Fibroblast; for EC50: 96 h, LL29 cells, TGF-β1 20 ng/mL, 4 days, % αSMA-positive cells
Outline: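 LL29 IPF-patient lung fibroblasts plated in F12 with 1% FBS, treated with TGF-β1 plus compound; TGF-β1/DMSO wells served as controls. After 4 days incubation, SYTOX green (1 μM final) added for 30 min at room temperature; αSMA staining used as fibrosis read-out.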

[5] = tested on: Wnt activity (Sp5-Luc reporter, SW480 colon carcinoma cells); test: Screening assay for Wnt activity: Sp5-Luc reporter gene assay in SW480 cells; details: Homo sapiens; for EC50: SW480 Sp5-Luc reporter, overnight incubation; for inhibition at 10 µM: SW480, read-out: percent inhibition at 10 μM
Outline: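 SW480 colon carcinoma cells stably carrying Sp5 promoter (eight TCF/LEF sites)-driven firefly luciferase, plated at 4,000 cells/well in 1% FBS medium and incubated overnight at 37° C. Luminescence normalised to DMSO-only cells; EC50 from four-parameter variable-slope nonlinear regression.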

CS(=O)(=O)NCc1cc(F)cc(-c2cncc3[nH]c(-c4n[nH]c5ccc(-c6cncc(NC(=O)C7CCC7)c6)cc45)cc23)c1 [Compound 497, N-(5-(3-(4-(3-Fluoro-5-(methylsulfonamidomethyl)phenyl)-1H-pyrrolo[2,3-c]pyridin-2-yl)-1H-indazol-5-yl)pyridin-3-yl)cyclobutanecarboxamide]
EC50 [1]: 1100 nM
Emax [2]: 15%
EC50 [3]: 198 nM
EC50 [4]: 5430 nM
EC50 [5]: 554 nM

Fc1cccc(-c2cncc3[nH]c(-c4n[nH]c5ccc(C6CCNCC6)cc45)cc23)c1 [Compound 505, 3-(4-(3-Fluorophenyl)-1H-pyrrolo[2,3-c]pyridin-2-yl)-5-(piperidin-4-yl)-1H-indazole]
EC50 [1]: 4150 nM
EC50 [2]: 2700 nM
Emax [2]: 51%
EC50 [3]: 5430 nM
EC50 [4]: 2500 nM
EC50 [5]: 3230 nM

Cn1cc(-c2ccc3[nH]nc(-c4cc5c(-c6cccnc6)cncc5[nH]4)c3c2)cn1 [Compound 556, 5-(1-Methyl-1H-pyrazol-4-yl)-3-(4-(pyridin-3-yl)-1H-pyrrolo[2,3-c]pyridin-2-yl)-1H-indazole]
EC50 [1]: 506 nM
EC50 [2]: 30 nM
Emax [2]: 65%
inhibition at 10 µM [3]: 44.3%
EC50 [3]: > 10000 nM
EC50 [4]: > 10000 nM
inhibition at 10 µM ([4]; read-out: percent inhibition at 10 μM): 0%
EC50 [5]: 250 nM

Cc1ncc(-c2ccc3[nH]nc(-c4cc5c(-c6ccncc6)cncc5[nH]4)c3c2)n1C [Compound 573, 5-(1,2-Dimethyl-1H-imidazol-5-yl)-3-(4-(pyridin-4-yl)-1H-pyrrolo[2,3-c]pyridin-2-yl)-1H-indazole]
EC50 [1]: > 10000 nM
inhibition at 10 µM [1]: 30.3%
Emax [2]: 28%
inhibition at 10 µM [3]: 11%
EC50 [3]: > 10000 nM
EC50 [4]: 2160 nM
EC50 [5]: 2900 nM

CN1CCN(c2cncc3[nH]c(-c4n[nH]c5ccc(-c6cncc(NC(=O)CC7CCNCC7)c6)cc45)cc23)CC1 [Compound 641, N-(5-(3-(4-(4-Methylpiperazin-1-yl)-1H-pyrrolo[2,3-c]pyridin-2-yl)-1H-indazol-5-yl)pyridin-3-yl)-2-(piperidin-4-yl)acetamide]
EC50 [1]: > 10000 nM
inhibition at 10 µM [1]: 11.9%
EC50 [2]: 100 nM
Emax [2]: 289%
inhibition at 10 µM [3]: 43.7%
EC50 [3]: > 10000 nM
EC50 [4]: 6440 nM
inhibition at 10 µM [5]: 6.7%
EC50 [5]: > 10000 nM

c1cc2cc(-c3n[nH]c4ccc(-c5cncc(OCCN6CCCC6)c5)cc34)[nH]c2cn1 [Compound 658, 5-(5-(2-(Pyrrolidin-1-yl)ethoxy)pyridin-3-yl)-3-(1H-pyrrolo[2,3-c]pyridin-2-yl)-1H-indazole]
EC50 [1]: 3150 nM
Emax [2]: 45%
EC50 [3]: 134 nM
EC50 [4]: 925 nM
EC50 [5]: 1840 nM

COc1cncc(-c2ccc3[nH]nc(-c4cc5c(-c6ccsc6)cncc5[nH]4)c3c2)c1 [Compound 676, 5-(5-Methoxypyridin-3-yl)-3-(4-(thiophen-3-yl)-1H-pyrrolo[2,3-c]pyridin-2-yl)-1H-indazole]
EC50 [1]: 510 nM
Emax [2]: 40%
EC50 [3]: 2580 nM
EC50 [4]: 434 nM
EC50 [5]: 956 nM

COc1cncc(-c2ccc3[nH]nc(-c4cc5c(-c6ccoc6)cncc5[nH]4)c3c2)c1 [Compound 692, 3-(4-(Furan-3-yl)-1H-pyrrolo[2,3-c]pyridin-2-yl)-5-(5-methoxypyridin-3-yl)-1H-indazole]
EC50 [1]: 1100 nM
EC50 [2]: 10 nM
Emax [2]: 170%
EC50 [3]: 8270 nM
EC50 [4]: 728 nM
EC50 [5]: 2200 nM

CN(C)Cc1cncc(-c2cc(F)c3[nH]nc(-c4cc5c(-c6cccc(F)c6)cncc5[nH]4)c3c2)c1 [Compound 991, 1-(5-(7-Fluoro-3-(4-(3-fluorophenyl)-1H-pyrrolo[2,3-c]pyridin-2-yl)-1H-indazol-5-yl)pyridin-3-yl)-N,N-dimethylmethanamine]
EC50 [1]: 1040 nM
Emax [2]: 38%
EC50 [3]: 3710 nM
EC50 [4]: 1230 nM
EC50 [5]: 3710 nM

CN(C)Cc1cncc(-c2cc3c(-c4cc5c(-c6cccc(F)c6)cncc5[nH]4)n[nH]c3cc2F)c1 [Compound 992, 1-(5-(6-Fluoro-3-(4-(3-fluorophenyl)-1H-pyrrolo[2,3-c]pyridin-2-yl)-1H-indazol-5-yl)pyridin-3-yl)-N,N-dimethylmethanamine]
EC50 [1]: 294 nM
Emax [2]: 21%
EC50 [3]: 74 nM
EC50 [4]: 920 nM
EC50 [5]: 960 nM

CN(C)Cc1cncc(-c2ccc3[nH]nc(-c4cc5c(-c6cccc(F)c6)cncc5[nH]4)c3c2F)c1 [Compound 993, 1-(5-(4-Fluoro-3-(4-(3-fluorophenyl)-1H-pyrrolo[2,3-c]pyridin-2-yl)-1H-indazol-5-yl)pyridin-3-yl)-N,N-dimethylmethanamine]
EC50 [1]: 1600 nM
EC50 [2]: 2700 nM
Emax [2]: 114%
inhibition at 10 µM [3]: 18.1%
EC50 [3]: > 10000 nM
EC50 [4]: 1700 nM
inhibition at 10 µM [5]: 46.8%
EC50 [5]: > 10000 nM
